Data from patent US7772241B2, “Variolin derivatives and their use as antitumor agents” (Pharma Mar S.A., priority 2001, dated 2010).

Legend:
[1] = tested on: LoVo; experiment: Inhibition of cells growth by colorimetric (SRB) assay, LoVo
Method in brief: (§1)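 Read-out is sulforhodamine B protein stain (OD 490 nm) after cold TCA fixation, following 48 h continuous exposure to samples spanning 10 to 10^−8 μg/ml.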

[2] = tested on: LoVo-Dox; experiment: Inhibition of cells growth by colorimetric (SRB) assay, LoVo-Dox
Method in brief: as §1

[3] = tested on: HeLa-APL; experiment: Inhibition of cells growth by colorimetric (SRB) assay, HeLa-APL
Text: (§2) The finality of these assays is to interrupt the growth of a “in vitro” tumor cell culture by means a continued exhibition of the cells to the sample to be testing.
(§3) This form of the assay employs 96 well cell culture microplates of 9 mm diameter (Faircloth, 1988; Mosmann, 1983). Most of the cell lines are obtained from American Type Culture Collection (ATCC) derived from different human cancer types.
(§4) Cells are maintained in RPMI 1640 10% FBS, supplemented with 0.1 g/l penicillin and 0.1 g/l streptomycin sulphate and then incubated at 37° C., 5% CO2 and 98% humidity. For the experiments, cells were harvested from subconfluent cultures using trypsin and resuspended in fresh medium before plating.
(§5) Cells are seeded in 96 well microtiter plates, at 5×10^3 cells per well in aliquots of 195 μl medium, and they are allowed to attach to the plate surface by growing in drug free medium for 18 hours. Afterward, samples are added in aliquots of 5 μl in a ranging from 10 to 10^−8 μg/ml, dissolved in DMSO/EtOH/PBS (0.5:0.5:99). After 48 hours exposure, the antitumor effect are measured by the SRB methodology: cells are fixed by adding 50 μl of cold 50% (wt/vol) trichloroacetic acid (TCA) and incubating for 60 minutes at 4° C. Plates are washed with deionized water and dried. One hundred μl of SRB solution (0.4% wt/vol in 1% acetic acid) is added to each microtiter well and incubated for 10 minutes at room temperature. Unbound SRB is removed by washing with 1% acetic acid. Plates are air dried and bound stain is solubilized with Tris buffer. Optical densities are read on a automated spectrophotometric plate reader at a single wavelength of 490 nm.
(§6) The values for mean +/−SD of data from triplicate wells are calculated. Some parameters for cellular responses can be calculated: GI=growth inhibition, TGI=total growth inhibition (cytostatic effect) and LC=cell killing (cytotoxic effect).

[4] = tested on: SK-MEL-28; experiment: Inhibition of cells growth by colorimetric (SRB) assay, SK-MEL-28
Method in brief: as §1

[5] = tested on: K-562; experiment: Inhibition of cells growth by colorimetric (SRB) assay, K-562
Method in brief: as §1

[6] = tested on: DU-145; experiment: Inhibition of cells growth by colorimetric (SRB) assay, DU-145
Method in brief: as §1

[7] = tested on: A-549; experiment: Inhibition of cells growth by colorimetric (SRB) assay, A-549
Method in brief: as §1

[8] = tested on: HT-29; experiment: Inhibition of cells growth by colorimetric (SRB) assay, HT-29
Method in brief: as §1

[9] = tested on: IGROV-ET; experiment: Inhibition of cells growth by colorimetric (SRB) assay, IGROV-ET
Method in brief: as §1

[10] = tested on: SK-BR-3; experiment: Inhibition of cells growth by colorimetric (SRB) assay, SK-BR-3
Method in brief: as §1

[11] = tested on: HeLa; experiment: Inhibition of cells growth by colorimetric (SRB) assay, HeLa
Text: as §2, §3, §4, §5, §6

[12] = tested on: PANC-1; experiment: Inhibition of cells growth by colorimetric (SRB) assay, PANC-1
Method in brief: as §1

[13] = tested on: IGROV-1; experiment: Inhibition of cells growth by colorimetric (SRB) assay, IGROV-1
Method in brief: as §1

[14] = tested on: LNCaP; experiment: Inhibition of cells growth by colorimetric (SRB) assay, LNCaP
Method in brief: as §1

CSc1nccc(-c2c3c(N)ccnc3n3c(N)nccc23)n1.Cl [Compound 93]
GI50 ([1]; Homo sapiens, LoVo, 48 h, read-out: LOVO GI50, SRB assay, 48 hours exposure): 984 nM
CC50 ([1]; Homo sapiens, LoVo, 48 h, read-out: LOVO LC50, SRB assay, 48 hours exposure): 17400 nM
LOVO TGI ([1]; SRB assay, 48 hours exposure): 3.84E−06
GI50 ([2]; Homo sapiens, 48 h, read-out: LOVO-DOX GI50, SRB assay, 48 hours exposure): 699 nM
CC50 ([2]; Homo sapiens, 48 h, read-out: LOVO-DOX LC50, SRB assay, 48 hours exposure): 25200 nM
LOVO-DOX TGI ([2]; SRB assay, 48 hours exposure): 1.68E−06
GI50 ([3]; Homo sapiens, 48 h, read-out: HELA-APL GI50, SRB assay, 48 hours exposure): 4.67 nM
CC50 ([3]; Homo sapiens, 48 h, read-out: HELA-APL LC50, SRB assay, 48 hours exposure): 29 nM
HELA-APL TGI ([3]; SRB assay, 48 hours exposure): 6.03E−09
GI50 ([4]; Homo sapiens, SK-MEL-28, 48 h, read-out: MEL-28 GI50, SRB assay, 48 hours exposure): 767 nM
CC50 ([4]; Homo sapiens, SK-MEL-28, 48 h, read-out: MEL-28 LC50, SRB assay, 48 hours exposure): 10700 nM
MEL-28 TGI ([4]; SRB assay, 48 hours exposure): 3.71E−06
GI50 ([5]; Homo sapiens, K562, 48 h, read-out: K-562 GI50, SRB assay, 48 hours exposure): 898 nM
CC50 ([5]; Homo sapiens, K562, 48 h, read-out: K-562 LC50, SRB assay, 48 hours exposure): 25200 nM
K-562 TGI ([5]; SRB assay, 48 hours exposure): 1.57E−06
GI50 ([6]; Homo sapiens, DU-145, 48 h, read-out: DU-145 GI50, SRB assay, 48 hours exposure): 64.6 nM
CC50 ([6]; Homo sapiens, DU-145, 48 h, read-out: DU-145 LC50, SRB assay, 48 hours exposure): 2330 nM
DU-145 TGI ([6]; SRB assay, 48 hours exposure): 4.16E−07
GI50 ([7]; Homo sapiens, A549, 48 h, read-out: A-549 GI50, SRB assay, 48 hours exposure): 249 nM
CC50 ([7]; Homo sapiens, A549, 48 h, read-out: A-549 LC50, SRB assay, 48 hours exposure): 5980 nM
A-549 TGI ([7]; SRB assay, 48 hours exposure): 9.34E−07
GI50 ([8]; Homo sapiens, HT-29, 48 h, read-out: HT-29 GI50, SRB assay, 48 hours exposure): 176 nM
CC50 ([8]; Homo sapiens, HT-29, 48 h, read-out: HT-29 LC50, SRB assay, 48 hours exposure): 25200 nM
HT-29 TGI ([8]; SRB assay, 48 hours exposure): 1.32E−06
GI50 ([9]; Homo sapiens, 48 h, read-out: IGROV-ET GI50, SRB assay, 48 hours exposure): 860 nM
CC50 ([9]; Homo sapiens, 48 h, read-out: IGROV-ET LC50, SRB assay, 48 hours exposure): 2520 nM
IGROV-ET TGI ([9]; SRB assay, 48 hours exposure): 2.09E−06
GI50 ([10]; Homo sapiens, SK-BR-3, 48 h, read-out: SK-BR-3 GI50, SRB assay, 48 hours exposure): 326 nM
CC50 ([10]; Homo sapiens, SK-BR-3, 48 h, read-out: SK-BR-3 LC50, SRB assay, 48 hours exposure): 15600 nM
SK-BR-3 TGI ([10]; SRB assay, 48 hours exposure): 1.59E−06
GI50 ([11]; Homo sapiens, HeLa, 48 h, read-out: HELA GI50, SRB assay, 48 hours exposure): 2.52 nM
HELA TGI ([11]; SRB assay, 48 hours exposure): 5.10E−09
GI50 ([12]; Homo sapiens, PANC-1, 48 h, read-out: PANC-1 GI50, SRB assay, 48 hours exposure): 220 nM
CC50 ([12]; Homo sapiens, PANC-1, 48 h, read-out: PANC-1 LC50, SRB assay, 48 hours exposure): 25200 nM
PANC-1 TGI ([12]; SRB assay, 48 hours exposure): 2.78E−06
GI50 ([13]; Homo sapiens, IGROV-1, 48 h, read-out: IGROV GI50, SRB assay, 48 hours exposure): 144 nM
CC50 ([13]; Homo sapiens, IGROV-1, 48 h, read-out: IGROV LC50, SRB assay, 48 hours exposure): 25200 nM
IGROV TGI ([13]; SRB assay, 48 hours exposure): 8.76E−07
GI50 ([14]; Homo sapiens, LNCaP, 48 h, read-out: LN-caP GI50, SRB assay, 48 hours exposure): 127 nM
CC50 ([14]; Homo sapiens, LNCaP, 48 h, read-out: LN-caP LC50, SRB assay, 48 hours exposure): 1670 nM
LN-caP TGI ([14]; SRB assay, 48 hours exposure): 3.68E−07
